Data reported in patent US7138361B2, “Herbicidal heterocycles” (E. I. du Pont de Nemours and Company, priority 2000, dated 2006).

Assays:
Assay type in all cases: in vivo
[1] = test system: duck salad (Heteranthera limosa); experiment: Test C flooded paddy test; conditions: for Ducksalad plant response rating: Flooded Paddy, scale 0 to 100, 0 no effect, 100 complete control; for Plant response rating, Ducksalad: flooded paddy test, scale 0 to 100 (0 no effect, 100 complete control)
Procedure, shortened: (§1)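 Ratings come from visual comparison with control plants after 12 to 14 days in the greenhouse. Each species was at the 2-leaf stage when the flooded paddy was treated. Scores run from 0, meaning no effect, to 100, meaning complete control.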

[2] = test system: barnyardgrass (Echinochloa crus-galli); experiment: Test C flooded paddy test; conditions: for Barnyardgrass plant response rating: Flooded Paddy, scale 0 to 100, 0 no effect, 100 complete control; for Plant response rating, Barnyardgrass: flooded paddy test, scale 0 to 100 (0 no effect, 100 complete control)
Procedure, shortened: as §1

[3] = test system: smallflower flatsedge (Cyperus difformis); experiment: Test C flooded paddy test; conditions: for Flatsedge plant response rating: Flooded Paddy, scale 0 to 100, 0 no effect, 100 complete control; for Plant response rating, Flatsedge: flooded paddy test, scale 0 to 100 (0 no effect, 100 complete control)
Procedure, shortened: as §1

kochia (Kochia scoparia) = experiment: Test C preemergence
Excerpt: (§2) Seeds of plant species selected from bermudagrass (Cynodon dactylon), Surinam grass (Brachiaria decumbens), cocklebur (Xanthium strumarium), corn (Zea mays), crabgrass (Digitaria sanguinalis), woolly cupgrass (Eriochloa villosa), giant foxtail (Setaria faberii), goosegrass (Eleusine indica), johnsongrass (Sorghum halepense), kochia (Kochia scoparia), lambsquarters (Chenopodium album), morningglory (Ipomoea hederacea), yellow nutsedge (Cyperus esculentus), pigweed (Amaranthus retroflexus), common ragweed (Ambrosia elatior), soybean (Glycine max) and velvetleaf (Abutilon theophrasti) were planted and treated preemergence with test chemicals formulated in a non-phytotoxic solvent mixture which included a surfactant.
(§3) At the same time, plants selected from these crop and weed species and also winter barley (Hordeum vulgare), blackgrass (Alopecurus myosuroides), canary grass (Phalaris minor), chickweed (Stellaria media), downy brome (Bromus tectorum), green foxtail (Setaria viridis), Italian ryegrass (Lolium multiflorum), wheat (Triticum aestivum), wild oat (Avena fatua) and windgrass (Apera spica-venti) were treated with postemergence applications of some of the test chemicals formulated in the same manner. Plants ranged in height from 2 to 18 cm (1- to 4-leaf stage) for postemergence treatments. Plant species in the flooded paddy test consisted of rice (Oryza saliva), smallflower flatsedge (Cyperus difformis), duck salad (Heteranthera limosa) and barnyardgrass (Echinochloa crus-galli) grown to the 2-leaf stage for testing. Treated plants and controls were maintained in a greenhouse for 12 to 14 days, after which time all species were compared to controls and visually evaluated. Plant response ratings, summarized in Table C, are based on a scale of 0 to 100 where 0 is no effect and 100 is complete control. A dash (-) response means no test result.

[4] = test system: goosegrass (Eleusine indica); experiment: Test C preemergence
Excerpt: as §2, §3

[5] = test system: johnsongrass (Sorghum halepense); experiment: Test C preemergence
Excerpt: as §2, §3

Nightshade = experiment: Test C preemergence
Excerpt: as §2, §3

soybean (Glycine max) = experiment: Test C preemergence
Excerpt: as §2, §3

[6] = test system: yellow nutsedge (Cyperus esculentus); experiment: Test C preemergence
Excerpt: as §2, §3

[7] = test system: lambsquarters (Chenopodium album); experiment: Test C preemergence
Excerpt: as §2, §3

corn (Zea mays) = experiment: Test C preemergence
Excerpt: as §2, §3

[8] = test system: pigweed (Amaranthus retroflexus); experiment: Test C preemergence
Excerpt: as §2, §3

[9] = test system: bermudagrass (Cynodon dactylon); experiment: Test C preemergence
Excerpt: as §2, §3

[10] = test system: velvetleaf (Abutilon theophrasti); experiment: Test C preemergence
Excerpt: as §2, §3

[11] = test system: cocklebur (Xanthium strumarium); experiment: Test C preemergence
Excerpt: as §2, §3

Sunflower = experiment: Test C preemergence; conditions: Rate 125 g/ha; scale 0 to 100, 0 no effect, 100 complete control
Excerpt: as §2, §3

[12] = test system: crabgrass (Digitaria sanguinalis); experiment: Test C preemergence
Excerpt: as §2, §3

[13] = test system: woolly cupgrass (Eriochloa villosa); experiment: Test C preemergence
Excerpt: as §2, §3

[14] = test system: giant foxtail (Setaria faberii); experiment: Test C preemergence
Excerpt: as §2, §3

[15] = test system: Surinam grass (Brachiaria decumbens); experiment: Test C preemergence
Excerpt: as §2, §3

[16] = test system: morningglory (Ipomoea hederacea); experiment: Test C preemergence
Excerpt: as §2, §3

[17] = Rate 125 g/ha, scale 0 to 100, 0 no effect, 100 complete control
[18] = preemergence, Rate 31 g/ha, scale 0 to 100
[19] = preemergence, Rate 62 g/ha, scale 0 to 100
[20] = preemergence, Rate 250 g/ha, scale 0 to 100, 0 no effect, 100 complete control
[21] = Rate 250 g/ha, scale 0 to 100, 0 no effect, 100 complete control

CCCC(C)c1ccn(C2SCN(c3cccc(OC(F)(F)F)c3)C2=O)n1 (centres unmarked) [Compound 90]
Ducksalad plant response rating ([1]; Rate 250 g/ha): 90 | Ducksalad plant response rating ([1]; Rate 500 g/ha): 90 | Plant response rating, Ducksalad ([1]; Rate 62 g/ha): 80 | Barnyardgrass plant response rating ([2]; Rate 250 g/ha): 90 | Barnyardgrass plant response rating ([2]; Rate 500 g/ha): 100 | Plant response rating, Barnyardgrass ([2]; Rate 62 g/ha): 30 | Plant response rating, Barnyardgrass ([2]; Rate 125 g/ha): 60 | Flatsedge plant response rating ([3]; Rate 250 g/ha): 100 | Flatsedge plant response rating ([3]; Rate 500 g/ha): 100 | Plant response rating, Flatsedge ([3]; Rate 62 g/ha): 100 | Plant response rating, Flatsedge ([3]; Rate 125 g/ha): 100 | Plant response rating, Kochia (kochia (Kochia scoparia); [17]): 40 | Plant response rating, Kochia (kochia (Kochia scoparia); [18]): 0 | Plant response rating, Kochia (kochia (Kochia scoparia); [19]): 0 | Plant response rating, Kochia (kochia (Kochia scoparia); [20]): 80 | Plant response rating, Goosegrass [4, 17]: 100 | Plant response rating, Goosegrass [4, 18]: 20 | Plant response rating, Goosegrass [4, 19]: 100 | Plant response rating, Goosegrass [4, 20]: 100 | Plant response rating, Johnsongrass [5, 17]: 70 | Plant response rating, Johnsongrass [5, 18]: 10 | Plant response rating, Johnsongrass [5, 19]: 10 | Plant response rating, Johnsongrass [5, 20]: 100 | Plant response rating, Nightshade (Nightshade; Rate 31 g/ha, scale 0 to 100): 0 | Plant response rating, Nightshade (Nightshade; Rate 62 g/ha, scale 0 to 100): 0 | Plant response rating, Nightshade (Nightshade; [17]): 0 | Plant response rating, Nightshade (Nightshade; [21]): 0 | Plant response rating, Soybean (soybean (Glycine max); [17]): 0 | Plant response rating, Soybean (soybean (Glycine max); [18]): 0 | Plant response rating, Soybean (soybean (Glycine max); [19]): 0 | Plant response rating, Soybean (soybean (Glycine max); [20]): 0 | Plant response rating, Nutsedge [6, 17]: 0 | Plant response rating, Nutsedge [6, 18]: 0 | Plant response rating, Nutsedge [6, 19]: 0 | Plant response rating, Nutsedge [6, 20]: 0 | Plant response rating, Lambsquarters [7, 17]: 100 | Plant response rating, Lambsquarters [7, 18]: 10 | Plant response rating, Lambsquarters [7, 19]: 100 | Plant response rating, Lambsquarters [7, 20]: 100 | Plant response rating, Corn (corn (Zea mays); [17]): 0 | Plant response rating, Corn (corn (Zea mays); [18]): 0 | Plant response rating, Corn (corn (Zea mays); [19]): 0 | Plant response rating, Corn (corn (Zea mays); [20]): 10 | Plant response rating, Pigweed [8, 17]: 0 | Plant response rating, Pigweed [8, 18]: 0 | Plant response rating, Pigweed [8, 19]: 60 | Plant response rating, Pigweed [8, 20]: 100 | Plant response rating, Bermudagrass [9, 17]: 100 | Plant response rating, Bermudagrass [9, 18]: 0 | Plant response rating, Bermudagrass [9, 19]: 0 | Plant response rating, Bermudagrass [9, 20]: 100 | Plant response rating, Velvetleaf [10, 17]: 0 | Plant response rating, Velvetleaf [10, 18]: 0 | Plant response rating, Velvetleaf [10, 19]: 0 | Plant response rating, Velvetleaf [10, 20]: 0 | Plant response rating, Cocklebur [11, 17]: 0 | Plant response rating, Cocklebur [11, 18]: 0 | Plant response rating, Cocklebur [11, 19]: 0 | Plant response rating, Cocklebur [11, 20]: 0 | Plant response rating, Sunflower (Sunflower): 0 | Plant response rating, Crabgrass [12, 17]: 100 | Plant response rating, Crabgrass [12, 18]: 80 | Plant response rating, Crabgrass [12, 19]: 80 | Plant response rating, Crabgrass [12, 20]: 100 | Plant response rating, Cupgrass, Woolly [13, 17]: 10 | Plant response rating, Cupgrass, Woolly [13, 18]: 0 | Plant response rating, Cupgrass, Woolly [13, 19]: 0 | Plant response rating, Cupgrass, Woolly [13, 20]: 60 | Plant response rating, Foxtail, Giant [14, 17]: 0 | Plant response rating, Foxtail, Giant [14, 18]: 0 | Plant response rating, Foxtail, Giant [14, 19]: 40 | Plant response rating, Foxtail, Giant [14, 20]: 40 | Plant response rating, Surinam grass [15, 17]: 10 | Plant response rating, Surinam grass [15, 18]: 0 | Plant response rating, Surinam grass [15, 19]: 0 | Plant response rating, Surinam grass [15, 20]: 40 | Plant response rating, Morningglory [16, 17]: 0 | Plant response rating, Morningglory [16, 18]: 0 | Plant response rating, Morningglory [16, 19]: 0 | Plant response rating, Morningglory [16, 20]: 0

CCOc1cc(N2CCC(n3ccc(C(C)(C)C)n3)C2=O)ccc1C (centres unmarked) [Compound 106]
Ducksalad plant response rating ([1]; Rate 250 g/ha): 100 | Ducksalad plant response rating ([1]; Rate 500 g/ha): 100 | Plant response rating, Ducksalad ([1]; Rate 62 g/ha): 0 | Plant response rating, Ducksalad ([1]; Rate 125 g/ha): 0 | Barnyardgrass plant response rating ([2]; Rate 250 g/ha): 90 | Barnyardgrass plant response rating ([2]; Rate 500 g/ha): 100 | Plant response rating, Barnyardgrass ([2]; Rate 62 g/ha): 30 | Plant response rating, Barnyardgrass ([2]; Rate 125 g/ha): 50 | Flatsedge plant response rating ([3]; Rate 250 g/ha): 100 | Flatsedge plant response rating ([3]; Rate 500 g/ha): 100 | Plant response rating, Flatsedge ([3]; Rate 62 g/ha): 80 | Plant response rating, Flatsedge ([3]; Rate 125 g/ha): 90 | Plant response rating, Kochia (kochia (Kochia scoparia); [17]): 100 | Plant response rating, Kochia (kochia (Kochia scoparia); [18]): 100 | Plant response rating, Kochia (kochia (Kochia scoparia); [19]): 100 | Plant response rating, Kochia (kochia (Kochia scoparia); [20]): 100 | Plant response rating, Goosegrass [4, 17]: 100 | Plant response rating, Goosegrass [4, 18]: 100 | Plant response rating, Goosegrass [4, 19]: 100 | Plant response rating, Goosegrass [4, 20]: 100 | Plant response rating, Johnsongrass [5, 17]: 100 | Plant response rating, Johnsongrass [5, 18]: 30 | Plant response rating, Johnsongrass [5, 19]: 70 | Plant response rating, Johnsongrass [5, 20]: 100 | Plant response rating, Nightshade (Nightshade; Rate 31 g/ha, scale 0 to 100): 100 | Plant response rating, Nightshade (Nightshade; Rate 62 g/ha, scale 0 to 100): 100 | Plant response rating, Nightshade (Nightshade; [17]): 100 | Plant response rating, Nightshade (Nightshade; [21]): 100 | Plant response rating, Soybean (soybean (Glycine max); [17]): 100 | Plant response rating, Soybean (soybean (Glycine max); [18]): 80 | Plant response rating, Soybean (soybean (Glycine max); [19]): 100 | Plant response rating, Soybean (soybean (Glycine max); [20]): 100 | Plant response rating, Nutsedge [6, 17]: 80 | Plant response rating, Nutsedge [6, 18]: 10 | Plant response rating, Nutsedge [6, 19]: 10 | Plant response rating, Nutsedge [6, 20]: 100 | Plant response rating, Lambsquarters [7, 17]: 100 | Plant response rating, Lambsquarters [7, 18]: 100 | Plant response rating, Lambsquarters [7, 19]: 100 | Plant response rating, Lambsquarters [7, 20]: 100 | Plant response rating, Corn (corn (Zea mays); [17]): 0 | Plant response rating, Corn (corn (Zea mays); [18]): 0 | Plant response rating, Corn (corn (Zea mays); [19]): 0 | Plant response rating, Corn (corn (Zea mays); [20]): 40 | Plant response rating, Pigweed [8, 17]: 100 | Plant response rating, Pigweed [8, 18]: 70 | Plant response rating, Pigweed [8, 19]: 100 | Plant response rating, Pigweed [8, 20]: 90 | Plant response rating, Bermudagrass [9, 17]: 100 | Plant response rating, Bermudagrass [9, 18]: 100 | Plant response rating, Bermudagrass [9, 19]: 100 | Plant response rating, Bermudagrass [9, 20]: 100 | Plant response rating, Velvetleaf [10, 17]: 100 | Plant response rating, Velvetleaf [10, 18]: 90 | Plant response rating, Velvetleaf [10, 19]: 100 | Plant response rating, Velvetleaf [10, 20]: 100 | Plant response rating, Cocklebur [11, 17]: 90 | Plant response rating, Cocklebur [11, 18]: 70 | Plant response rating, Cocklebur [11, 19]: 90 | Plant response rating, Cocklebur [11, 20]: 100 | Plant response rating, Sunflower (Sunflower): 80 | Plant response rating, Crabgrass [12, 17]: 100 | Plant response rating, Crabgrass [12, 18]: 100 | Plant response rating, Crabgrass [12, 19]: 100 | Plant response rating, Crabgrass [12, 20]: 100 | Plant response rating, Cupgrass, Woolly [13, 17]: 100 | Plant response rating, Cupgrass, Woolly [13, 18]: 60 | Plant response rating, Cupgrass, Woolly [13, 19]: 100 | Plant response rating, Cupgrass, Woolly [13, 20]: 100 | Plant response rating, Foxtail, Giant [14, 17]: 40 | Plant response rating, Foxtail, Giant [14, 18]: 0 | Plant response rating, Foxtail, Giant [14, 19]: 0 | Plant response rating, Foxtail, Giant [14, 20]: 100 | Plant response rating, Surinam grass [15, 17]: 90 | Plant response rating, Surinam grass [15, 18]: 30 | Plant response rating, Surinam grass [15, 19]: 90 | Plant response rating, Surinam grass [15, 20]: 100 | Plant response rating, Morningglory [16, 17]: 100 | Plant response rating, Morningglory [16, 18]: 80 | Plant response rating, Morningglory [16, 19]: 90 | Plant response rating, Morningglory [16, 20]: 100
